Activity calls are given as the source filed them. No rule for the calls is given here.

Chain of Caspase-3 (Homo sapiens) + Caspase-9 (Homo sapiens) (P42574 whole entry, looked up): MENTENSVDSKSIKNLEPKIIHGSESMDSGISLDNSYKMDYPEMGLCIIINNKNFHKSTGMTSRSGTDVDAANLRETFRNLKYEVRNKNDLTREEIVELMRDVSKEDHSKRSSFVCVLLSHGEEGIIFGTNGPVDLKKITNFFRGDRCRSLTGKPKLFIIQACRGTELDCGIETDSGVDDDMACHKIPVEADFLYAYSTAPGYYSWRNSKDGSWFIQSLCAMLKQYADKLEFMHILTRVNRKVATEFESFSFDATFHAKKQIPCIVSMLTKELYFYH
Chain of Caspase-3 (Homo sapiens) + Caspase-9 (Homo sapiens) (P55211 whole entry, looked up): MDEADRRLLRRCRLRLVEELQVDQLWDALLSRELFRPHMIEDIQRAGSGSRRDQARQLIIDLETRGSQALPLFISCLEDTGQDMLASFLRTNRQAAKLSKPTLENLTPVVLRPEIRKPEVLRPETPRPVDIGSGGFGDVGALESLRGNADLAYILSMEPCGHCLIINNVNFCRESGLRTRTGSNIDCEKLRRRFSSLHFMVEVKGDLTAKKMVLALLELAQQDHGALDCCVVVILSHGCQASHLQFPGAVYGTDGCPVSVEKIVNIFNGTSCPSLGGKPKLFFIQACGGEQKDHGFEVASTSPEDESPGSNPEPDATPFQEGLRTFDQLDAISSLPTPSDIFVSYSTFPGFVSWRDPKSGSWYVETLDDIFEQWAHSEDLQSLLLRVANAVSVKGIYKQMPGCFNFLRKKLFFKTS

The experiment has as its target Caspase-3 (Homo sapiens) + Caspase-9 (Homo sapiens) (UniProt P42574+P55211). Briefly: modulators of CASP3 activation by CASP9, concentration-response, specificity counterscreen for Apaf-1 activator project, biochemical, fluorescence readout, leucine zipper CASP9, ultra-high-throughput screening actives (AID 588573). To be noted: LZ-caspase-9/caspase-3 coupled fluorogenic activity assay. In general terms: The purpose of a counterscreen is to sort out artefacts and off-target activity.
For `COc1ccc([N+](=O)[O-])cc1NC(=O)CCS(=O)(=O)c1ccc(Br)cc1`, the EC50 (commonly the midpoint of the concentration-response curve) is > 100 µM (inactive).
Still for that read-out and setting: the figure for `C=C(C)C(=O)Nc1cccc(C2=NOC3(C2)C[C@@H](C(N)=O)N(C(=O)C(=C)C)C3)c1` (some centres undefined) is > 100 µM (inactive); for `O=C1C2(CCCC13COC(c1ccc(O)cc1)OC3)COC(c1ccc(O)cc1)OC2` (centres undefined) it is > 100 µM (inactive).
As for `C=C(C)C(=O)Nc1cccc(C2=NOC3(C2)C[C@@H](C(N)=O)N(C(=O)/C=C/CC)C3)c1` (some centres undefined), the EC50 was > 100 µM (inactive).
For `CC(C)(CS(=O)(=O)[O-])NC(=O)CC[N+](C)(C)CCO`, the EC50 is > 100 µM (inactive).
The same measure, in the same setting: the same measure for `CC(Cc1c[nH]c2ccccc12)C(=O)O` (centres undefined): > 100 µM (inactive).
Regarding `N#C/C(=C\c1ccc(OCc2ccc(Cl)cc2)cc1)C(=O)Nc1cccc(C(=O)O)c1`, the IC50 (inhibition of caspase signal) was 15.6 µM.
As to `C=C(C)C(=O)Nc1cccc(C2=NOC3(C2)C[C@H](C(N)=O)N(C(=O)/C=C/C)C3)c1` (some centres undefined), the EC50 was > 100 µM (inactive).
For the molecule `COC(=O)c1ccccc1-c1ccc(/C=C2\C(=O)N(c3ccccc3)N=C2c2ccccc2)o1`, the EC50 is > 100 µM (inactive).
On the same count and under the same terms, the figure for `C=CC1=C(C(=O)O)N2C(=O)[C@@H](NC(=O)/C(=N/OCC(=O)O)c3csc(N)n3)[C@H]2SC1` is > 100 µM (inactive); for `CCOc1ccc(C(=O)/C=C/Nc2ccc(S(=O)(=O)N=C(N)N)cc2)cc1` it is > 100 µM (inactive).
Same read-out and setting: the same measure for `C=C(C)C(=O)Nc1cccc(C2=NOC3(C2)C[C@H](C(N)=O)N(C(=O)c2ccccc2C(=O)c2ccccc2)C3)c1` (some centres undefined): > 100 µM (inactive); for `C=C(C)C(=O)Nc1cccc(C2=NOC3(C2)C[C@@H](C(N)=O)N(C(=O)/C(C)=C/C)C3)c1` (some centres undefined): > 100 µM (inactive).
Still for that read-out and setting: the figure for `C=C(C)C(=O)Nc1cccc(C2=NOC3(C2)C[C@@H](C(N)=O)N(C(=O)/C=C/C=C/C)C3)c1` (some centres undefined) is > 100 µM (inactive); for `C=CC1=C(C(=O)O)N2C(=O)[C@@H](NC(=O)/C(=N\OCC(=O)O)c3csc(N)n3)[C@H]2SC1` it is > 100 µM (inactive); for `CC(CNc1ccccc1O)C(=O)O` (centres undefined) it is > 100 µM (inactive).
As for `C=C(C)C(=O)Nc1cccc(C2=NOC3(C2)C[C@@H](C(N)=O)N(C(=O)c2cc([N+](=O)[O-])cc([N+](=O)[O-])c2C)C3)c1` (some centres undefined), the EC50 is > 100 µM (inactive).
The same measure, in the same setting: the figure for `CCN(CC)CCOc1ccc2c(c1)C(=NNC(=O)c1ccccn1)c1cc(OCCN(CC)CC)ccc1-2` is > 100 µM (inactive).
In the case of `COc1ccc(/C=C2\SC(=S)N(CCC(=O)Nc3ccc(C(=O)O)cc3)C2=O)cc1OC`, the IC50 (inhibition of caspase signal) is 14.6 µM.
As for `CC(/C=C\c1cccnc1)=C/C(=O)O`, the EC50 was > 100 µM (inactive).
The same measure, in the same setting: the same measure for `Cc1cc(C)n(CC(C)C(=O)O)n1` (centres undefined): > 100 µM (inactive); for `COc1cc([N+](=O)[O-])ccc1NC(=O)COC(=O)c1ccc(NC(N)=O)cc1`: > 100 µM (inactive).
Regarding `CCc1ccc(N=C2NC(=O)/C(=C/c3cc(Br)c(OCC(=O)O)c(OC)c3)S2)cc1`, the IC50 (inhibition of caspase signal) is 23.6 µM.
Take `CCOc1ccccc1NC(=O)CCS(=O)(=O)c1ccc(Br)cc1`: the EC50 is > 100 µM (inactive).
For `C=C(C)C(=O)Nc1cccc(C2=NOC3(C2)C[C@@H](C(N)=O)N(C(=O)CCCCC)C3)c1` (some centres undefined), the EC50 was > 100 µM (inactive).
Consider `N#CCCn1cc(C(CC(=O)c2ccc(Br)cc2)C(=O)O)c2ccccc21` (centres undefined), for which the EC50 is > 100 µM (inactive).
As to `O=C(CCS(=O)(=O)c1ccc(Br)cc1)NCc1ccco1`, the EC50 was > 100 µM (inactive).
Still for that read-out and setting: the figure for `O=C(Nc1nc2ccsc2c(=O)s1)c1ccco1` is > 100 µM (inactive); for `C=C(C)C(=O)Nc1cccc(C2=NOC3(C2)C[C@H](C(N)=O)N(C(=O)c2ccccc2)C3)c1` (some centres undefined) it is > 100 µM (inactive).

Source of the values: PubChem BioAssay AID588573 (Sanford-Burnham Center for Chemical Genomics, 2011).
